In paper PMC4222410, “Gold(I)-catalysed synthesis of a furan analogue of thiamine pyrophosphate” (Beilstein Journal of Organic Chemistry, 2014) one finds Ki data, which are given here for one compound.

The experiment deals with T1, pyruvate decarboxylase (ZmPDC) (Zymomonas mobilis, UniProt P06672).
T1 construct: gene pdc; N-terminal His6-tag, pET28a, overexpressed in E. coli; tetramer (dimer of dimers)
Put plainly: coupled PDC/ADH assay (NADH, […] nm); time-course inactivation of apo-PDC and equilibrium competition with ThDP. The experiment is classed as biochemical.

T1 sequence (P06672 whole entry): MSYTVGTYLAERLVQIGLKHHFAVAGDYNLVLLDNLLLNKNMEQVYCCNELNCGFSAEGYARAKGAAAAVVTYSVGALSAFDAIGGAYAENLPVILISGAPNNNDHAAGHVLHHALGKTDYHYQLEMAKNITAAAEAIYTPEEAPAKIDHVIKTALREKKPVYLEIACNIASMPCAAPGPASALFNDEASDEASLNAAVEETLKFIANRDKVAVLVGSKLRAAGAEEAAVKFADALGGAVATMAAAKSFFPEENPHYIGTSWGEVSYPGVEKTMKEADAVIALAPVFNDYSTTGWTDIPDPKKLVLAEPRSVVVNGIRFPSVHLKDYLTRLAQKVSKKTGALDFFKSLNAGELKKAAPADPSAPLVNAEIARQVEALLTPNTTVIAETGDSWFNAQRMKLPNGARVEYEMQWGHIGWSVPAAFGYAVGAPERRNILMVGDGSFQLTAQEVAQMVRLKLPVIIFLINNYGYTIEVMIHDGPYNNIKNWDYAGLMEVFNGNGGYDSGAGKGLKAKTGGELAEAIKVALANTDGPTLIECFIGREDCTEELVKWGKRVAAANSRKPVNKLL

As for `Cc1ncc(Cc2coc(CCOP(=O)(O)OP(=O)(O)O)c2)c(N)n1` [compound 17, furan analogue of ThDP], the Ki is 0.0325 nM.
